Test results reported in patent US20240360177A1, “PEPTIDES WITH ANTIMICROBIAL ACTIVITIES” (priority 2021, published 2024).
Values after ≈ are worked out from the molar mass of the structure shown. Non-standard residues stand in square brackets, D forms with d. Residues, ends and D or L forms follow the SMILES beside them. Tic = O=C(O)[C@@H]1Cc2ccccc2CN1

Experiments:
C. parapsilosis = conditions: 24 h
C. auris = conditions: 24 h
C. albicans = conditions: 24 h
C. glabrata = conditions: 24 h
in vitro = conditions: human, EC50 cytotoxicity in HepG2, intracellular ATP assay
C. dubliniensis = conditions: 24 h
C. tropicalis = conditions: 24 h
C. krusei = conditions: 24 h

SMILES | MIC C. parapsilosis (C. parapsilosis) | MIC C. auris (C. auris) | MIC C. albicans (C. albicans) | MIC C. glabrata (C. glabrata) | EC50 (in vitro) | MIC C. dubliniensis (C. dubliniensis) | MIC C. tropicalis (C. tropicalis) | MIC C. krusei (C. krusei) | Activity at 24 h MIC50 against Candida spp. (Candida spp.) | Activity at 24 h MIC90 against Candida spp. (Candida spp.) | Activity at 48 h MIC50 against Candida spp. (Candida spp.) | Activity at 48 h MIC90 against Candida spp. (Candida spp.)
N=C(N)NCCC[C@@H](N)C(=O)N[C@@H](CCCNC(=N)N)C(=O)N[C@H](CCCNC(=N)N)C(=O)N[C@@H](CCCNC(=N)N)C(=O)N1CCC[C@H]1C(=O)N[C@H](CCCNC(=N)N)C(=O)N[C@@H](CCCNC(=N)N)C(=O)N[C@H](CCCNC(=N)N)C(=O)N[C@@H](CCCNC(=N)N)C(=O)N1CCC[C@H]1C(=O)N[C@H](CCCNC(=N)N)C(=O)N[C@@H](CCCNC(=N)N)C(=O)N[C@H](CCCNC(=N)N)C(=O)N1CCC[C@H]1C(=O)N[C@H](CCCNC(=N)N)C(=O)N[C@@H](CCCNC(=N)N)C(=O)N[C@H](CCCNC(=N)N)C(N)=O [SEQ ID NO: 60, rRrR-P-rRrR-P-rRr-P-rRr-NH2] (H-[dR]R[dR]RP[dR]R[dR]RP[dR]R[dR]P[dR]R[dR]-NH2) | 0.25 µg/mL (≈ 0.1 µM) | 0.5 µg/mL (≈ 0.2 µM) | 0.25 µg/mL (≈ 0.1 µM) | 0.25 µg/mL (≈ 0.1 µM) | > 300 µg/mL | 0.25 µg/mL (≈ 0.1 µM) | 0.25 µg/mL (≈ 0.1 µM) | 0.5 µg/mL (≈ 0.2 µM) | – | – | – | –
N=C(N)NCCC[C@@H](N)C(=O)N[C@@H](CCCNC(=N)N)C(=O)N[C@H](CCCNC(=N)N)C(=O)N[C@@H](CCCNC(=N)N)C(=O)N[C@H](CCCNC(=N)N)C(=O)N[C@@H](CCCNC(=N)N)C(=O)N[C@H](CCCNC(=N)N)C(=O)N1CCC[C@H]1C(=O)N[C@H](CCCNC(=N)N)C(=O)N[C@@H](CCCNC(=N)N)C(=O)N[C@H](CCCNC(=N)N)C(=O)N[C@@H](CCCNC(=N)N)C(=O)N[C@H](CCCNC(=N)N)C(=O)N[C@@H](CCCNC(=N)N)C(=O)N[C@H](CCCNC(=N)N)C(N)=O [SEQ ID NO: 62, rRrRrRr-P-rRrRrRr-NH2] (H-[dR]R[dR]R[dR]R[dR]P[dR]R[dR]R[dR]R[dR]-NH2) | 0.25 µg/mL (≈ 0.109 µM) | 2 µg/mL (≈ 0.869 µM) | 0.25 µg/mL (≈ 0.109 µM) | 0.5 µg/mL (≈ 0.217 µM) | > 300 µg/mL | 0.25 µg/mL (≈ 0.109 µM) | 0.25 µg/mL (≈ 0.109 µM) | 0.5 µg/mL (≈ 0.217 µM) | 0.5 µg/mL | 4 µg/mL | 0.5 µg/mL | 32 µg/mL
N=C(N)NCCC[C@H](NC(=O)[C@@H](CCCNC(=N)N)NC(=O)[C@H](CCCNC(=N)N)NC(=O)[C@@H](CCCNC(=N)N)NC(=O)[C@@H]1CCCN1C(=O)[C@H](CCCNC(=N)N)NC(=O)[C@@H](CCCNC(=N)N)NC(=O)[C@H](CCCNC(=N)N)NC(=O)[C@@H](CCCNC(=N)N)NC(=O)[C@@H]1CCCN1C(=O)[C@@H](CCCNC(=N)N)NC(=O)[C@H](CCCNC(=N)N)NC(=O)[C@@H](CCCNC(=N)N)NC(=O)[C@@H]1CCCN1C(=O)[C@@H](CCCNC(=N)N)NC(=O)[C@H](CCCNC(=N)N)NC(=O)[C@@H](CCCNC(=N)N)NC(=O)[C@@H](N)CCCNC(=N)N)C(N)=O [SEQ ID NO: 63, RrRr-P-rRr-P-rRrR-P-rRrR-NH2] (H-R[dR]R[dR]P[dR]R[dR]P[dR]R[dR]RP[dR]R[dR]R-NH2) | 0.5 µg/mL (≈ 0.189 µM) | 0.5 µg/mL (≈ 0.189 µM) | 0.5 µg/mL (≈ 0.189 µM) | 0.5 µg/mL (≈ 0.189 µM) | > 300 µg/mL | 0.5 µg/mL (≈ 0.189 µM) | 0.5 µg/mL (≈ 0.189 µM) | 0.5 µg/mL (≈ 0.189 µM) | 0.5 µg/mL | 1 µg/mL | 1 µg/mL | 2 µg/mL
N=C(N)NCCC[C@H](NC(=O)[C@@H](CCCNC(=N)N)NC(=O)[C@H](CCCNC(=N)N)NC(=O)[C@@H](CCCNC(=N)N)NC(=O)[C@@H]1CCCN1C(=O)[C@H](CCCNC(=N)N)NC(=O)[C@@H](CCCNC(=N)N)NC(=O)[C@H](CCCNC(=N)N)NC(=O)[C@@H](CCCNC(=N)N)NC(=O)[C@@H]1CCCN1C(=O)[C@H](CCCNC(=N)N)NC(=O)[C@@H](CCCNC(=N)N)NC(=O)[C@H](CCCNC(=N)N)NC(=O)[C@@H](CCCNC(=N)N)NC(=O)[C@@H]1CCCN1C(=O)[C@@H](CCCNC(=N)N)NC(=O)[C@H](CCCNC(=N)N)NC(=O)[C@@H](CCCNC(=N)N)NC(=O)[C@@H](N)CCCNC(=N)N)C(N)=O [SEQ ID NO: 64, RrRr-P-rRrR-P-rRrR-P-rRrR-NH2] (H-R[dR]R[dR]P[dR]R[dR]RP[dR]R[dR]RP[dR]R[dR]R-NH2) | 0.5 µg/mL (≈ 0.178 µM) | 0.5 µg/mL (≈ 0.178 µM) | 0.5 µg/mL (≈ 0.178 µM) | 0.5 µg/mL (≈ 0.178 µM) | > 300 µg/mL | 0.5 µg/mL (≈ 0.178 µM) | 0.5 µg/mL (≈ 0.178 µM) | 0.5 µg/mL (≈ 0.178 µM) | 0.5 µg/mL | 1 µg/mL | 0.5 µg/mL | 2 µg/mL
N=C(N)NCCC[C@H](NC(=O)[C@@H](CCCNC(=N)N)NC(=O)[C@@H](N)CCCNC(=N)N)C(=O)N[C@H](CCCNC(=N)N)C(=O)N1CCC[C@H]1C(=O)N[C@H](CCCNC(=N)N)C(=O)N[C@@H](CCCNC(=N)N)C(=O)N[C@H](CCCNC(=N)N)C(=O)N1CCC[C@H]1C(=O)N[C@@H](CCCNC(=N)N)C(=O)N[C@H](CCCNC(=N)N)C(=O)N[C@@H](CCCNC(=N)N)C(=O)N1CCC[C@H]1C(=O)N[C@H](CCCNC(=N)N)C(=O)N[C@@H](CCCNC(=N)N)C(=O)N[C@H](CCCNC(=N)N)C(N)=O [SEQ ID NO: 65, RrRr-P-rRr-P-RrR-P-rRr-NH2] (H-R[dR]R[dR]P[dR]R[dR]PR[dR]RP[dR]R[dR]-NH2) | 0.25 µg/mL (≈ 0.107 µM) | 0.5 µg/mL (≈ 0.214 µM) | 0.25 µg/mL (≈ 0.107 µM) | 0.5 µg/mL (≈ 0.214 µM) | > 300 µg/mL | 0.5 µg/mL (≈ 0.214 µM) | 0.5 µg/mL (≈ 0.214 µM) | 0.5 µg/mL (≈ 0.214 µM) | 0.5 µg/mL | 2 µg/mL | 0.5 µg/mL | 32 µg/mL
N=C(N)NCCC[C@@H](N)C(=O)N[C@@H](CCCNC(=N)N)C(=O)N[C@H](CCCNC(=N)N)C(=O)N1Cc2ccccc2C[C@H]1C(=O)N[C@H](CCCNC(=N)N)C(=O)N[C@@H](CCCNC(=N)N)C(=O)N[C@H](CCCNC(=N)N)C(=O)N1Cc2ccccc2C[C@H]1C(=O)N[C@H](CCCNC(=N)N)C(=O)N[C@@H](CCCNC(=N)N)C(=O)N[C@H](CCCNC(=N)N)C(=O)N[C@@H](CCCNC(=N)N)C(=O)N1Cc2ccccc2C[C@H]1C(=O)N[C@H](CCCNC(=N)N)C(=O)N[C@@H](CCCNC(=N)N)C(=O)N[C@H](CCCNC(=N)N)C(=O)N[C@@H](CCCNC(=N)N)C(N)=O [SEQ ID NO: 76, rRr-(Tic)-rRr-(Tic)-rRrR-(Tic)-rRrR-NH2] (H-[dR]R[dR][Tic][dR]R[dR][Tic][dR]R[dR]R[Tic][dR]R[dR]R-NH2) | 0.5 µg/mL (≈ 0.186 µM) | 0.5 µg/mL (≈ 0.186 µM) | 0.5 µg/mL (≈ 0.186 µM) | 0.5 µg/mL (≈ 0.186 µM) | 139 µg/mL (≈ 51.7 µM) | 0.5 µg/mL (≈ 0.186 µM) | 0.5 µg/mL (≈ 0.186 µM) | 1 µg/mL (≈ 0.373 µM) | – | – | – | –
